Here are results for 35 compounds from patent US20240327393A1 (SIRONAX LTD., priority 2021, published 2024).

One test has as its system HT-1080 (ATCC, CCL-121) cells. In words: HT-1080 cell viability assay with ferroptosis inducer RSL3 (Cell Titer-Glo). It is filed as cell-based. The conditions noted are these: HT-1080 cells treated with RSL3; 3-fold, 10-point dilution, 1.1 μM highest concentration; Table 3; read-out: EC50 (nM), ferroptosis inhibitory activity. Put shortly: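 HT-1080 cells (6000 per well) were cultured overnight at 37 °C, then co-treated with RSL3 and compound in a 3-fold, 10-point series topping at 1.1 μM. Viability was read by CellTiter-Glo luminescence and normalized to untreated controls. EC50 came from a sigmoidal non-linear regression fit.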
A general note: In ATP-based viability assays light output follows the ATP content of the culture.
Consider `Cc1cc(N2CCC(C(F)(F)F)CC2)ccc1Nc1ccc2c(c1)OCC(=O)N2` [Compound 515, 7-((2-methyl-4-(4-(trifluoromethyl)piperidin-1-yl)phenyl)amino)-2H-benzo[b][1,4]oxazin-3(4H)-one], for which the concentration giving a half-maximal response (EC50) – broadly, the concentration needed to bring the measured effect to its halfway point – fell in the range of 0.1 to 100 nM.
In the case of `Cc1cc(N2CCC(C(F)(F)F)CC2)ccc1Nc1ccc2c(c1)CNC2` [Compound 544, N-(2-methyl-4-(4-(trifluoromethyl)piperidin-1-yl)phenyl)isoindolin-5-amine], the EC50 was 0.1 to 100 nM.

Staying with this test, now noted: Homo sapiens; HT-1080 cells treated with RSL3; 3-fold, 10-point dilution, 1.1 μM highest concentration; Table 3; read-out: EC50 (nM), ferroptosis inhibitory activity.
Turning to `Cc1cc(N2CCC(C(F)(F)F)CC2)ccc1Nc1ccc2[nH]c(=O)[nH]c2c1` [Compound 513, 5-((2-methyl-4-(4-(trifluoromethyl)piperidin-1-yl)phenyl)amino)-1,3-dihydro-2H-benzo[d]imidazol-2-one], the 50% effective concentration (EC50) fell in the range of 0.1 to 100 nM.
On to `Cc1cc(N2CCC(C(F)(F)F)CC2)ccc1Nc1ccc2c(c1)C(C)(C)C(=O)N2` [Compound 514, 3,3-dimethyl-5-((2-methyl-4-(4-(trifluoromethyl)piperidin-1-yl)phenyl)amino)indolin-2-one], for which the EC50 lay within 0.1 to 100 nM.
On the same count and under the same terms, with `COc1cc(N2CCC(C(F)(F)F)CC2)ccc1Nc1ccc2c(c1)OCC(=O)N2` [Compound 516, 7-((2-methoxy-4-(4-(trifluoromethyl)piperidin-1-yl)phenyl)amino)-2H-benzo[b][1,4]oxazin-3(4H)-one] the figure was 0.1 to 100 nM; with `O=C1COc2cc(Nc3ccc(N4CCCCC4)cc3)ccc2N1` [Compound 517, 7-(4-(piperidin-1-yl)phenylamino)-2H-benzo[b][1,4]oxazin-3(4H)-one], 0.1 to 100 nM; with `Cc1cc(N2CCC(F)CC2)ccc1Nc1ccc2c(c1)OCC(=O)N2` [Compound 518, 7-((4-(4-fluoropiperidin-1-yl)-2-methylphenyl)amino)-2H-benzo[b][1,4]oxazin-3(4H)-one], 0.1 to 100 nM.
As for `Cc1cc(N2CC(C)N(CC(F)(F)F)C(C)C2)ccc1Nc1ccc2c(c1)OCC(=O)N2` (centres unmarked) [Compound 519, 7-((4-(3,5-dimethyl-4-(2,2,2-trifluoroethyl)piperazin-1-yl)-2-methylphenyl)amino)-2H-benzo[b][1,4]oxazin-3(4H)-one], the EC50 is 0.1 to 100 nM.
`Cc1nc(N2CC(C)OC(C)(C)C2)ccc1Nc1ccc2c(c1)OCC(=O)N2` (centres unmarked) [Compound 520, 7-((2-methyl-6-(2,2,6-trimethylmorpholino)pyridin-3-yl)amino)-2H-benzo[b][1,4]oxazin-3(4H)-one]: the EC50 was in the range of 0.1 to 100 nM.
For the compound `Cc1nc(N2CCN(CC(F)(F)F)CC2)ccc1Nc1ccc2c(c1)OCC(=O)N2` [Compound 521, 7-((2-methyl-6-(4-(2,2,2-trifluoroethyl)piperazin-1-yl)pyridin-3-yl)amino)-2H-benzo[b][1,4]oxazin-3(4H)-one], the EC50 lay within 0.1 to 100 nM.
On the same count and under the same terms, with `CCc1nc(N2C[C@@H](C)O[C@@H](C)C2)ccc1Nc1ccc2c(c1)OCC(=O)N2` [Compound 522, 7-((6-((2S,6R)-2,6-dimethylmorpholino)-2-ethylpyridin-3-yl)amino)-2H-benzo[b][1,4]oxazin-3(4H)-one] the figure was 0.1 to 100 nM; with `O=C1COc2cc(Nc3ccc(N4CCC(F)(F)CC4)cc3)ccc2N1` [Compound 524, 7-((4-(4,4-difluoropiperidin-1-yl)phenyl)amino)-2H-benzo[b][1,4]oxazin-3(4H)-one], 0.1 to 100 nM; with `Cc1cc(N2CCC(F)(F)CC2)ccc1Nc1ccc2c(c1)OCC(=O)N2` [Compound 525, 7-((4-(4,4-difluoropiperidin-1-yl)-2-methylphenyl)amino)-2H-benzo[b][1,4]oxazin-3(4H)-one], 0.1 to 100 nM.
`Cc1cc(N2CCC(C(F)(F)F)CC2)ccc1Nc1ccc2[nH]c(N)nc2c1` [Compound 526, N5-(2-methyl-4-(4-(trifluoromethyl)piperidin-1-yl)phenyl)-1H-benzo[d]imidazole-2,5-diamine]: the EC50 lay within 0.1 to 100 nM.
Turning to `Cc1cc(N2CCC(C(F)(F)F)CC2)ccc1Nc1ccc2c(c1)NC(=O)C2(C)C` [Compound 527, 3,3-dimethyl-6-((2-methyl-4-(4-(trifluoromethyl)piperidin-1-yl)phenyl)amino)indolin-2-one], the EC50 lay within 0.1 to 100 nM.
For `Cc1cc(N2CC(C)OC(C)C2)ccc1Nc1ccc2c(c1)CCNC2` (centres unmarked) [Compound 528, N-(4-(2,6-dimethylmorpholino)-2-methylphenyl)-1,2,3,4-tetrahydroisoquinolin-6-amine], the EC50 lay in the range of 0.1 to 100 nM.
Same read-out and setting: the result for `Cc1cc(N2CCOC(C)C2)ccc1Nc1ccc2c(c1)CCNC2` (centres unmarked) [Compound 529, N-(2-methyl-4-(2-methylmorpholino)phenyl)-1,2,3,4-tetrahydroisoquinolin-6-amine] reads 0.1 to 100 nM; that for `Cc1cc(N2CCC(C(F)(F)F)CC2)ccc1Nc1ccc2c(c1)OCCNC2=O` [Compound 531, 8-((2-methyl-4-(4-(trifluoromethyl)piperidin-1-yl)phenyl)amino)-3,4-dihydrobenzo[f][1,4]oxazepin-5(2H)-one], 0.1 to 100 nM.
Consider `CN1C(=O)COc2cc(N(C)c3ccc(N4CCC(C(F)(F)F)CC4)cc3)ccc21` [Compound 532, 4-methyl-7-(methyl(4-(4-(trifluoromethyl)piperidin-1-yl)phenyl)amino)-2H-benzo[b][1,4]oxazin-3(4H)-one], for which the EC50 fell in the range of 100 to 1000 nM.
In the case of `Cc1cc(N2CCC(C(F)(F)F)CC2)ccc1Nc1ccc2c(c1)OCCC(=O)N2` [Compound 533], the EC50 fell in the range of 0.1 to 100 nM.
Still for that read-out and setting: with `O=C1CCOc2cc(Nc3ccc(N4CCC(C(F)(F)F)CC4)cc3)ccc2N1` [Compound 534, 8-((4-(4-(trifluoromethyl)piperidin-1-yl)phenyl)amino)-2,3-dihydrobenzo[b][1,4]oxazepin-4(5H)-one] the figure was 0.1 to 100 nM.
Same read-out and setting: with `Cc1cc(N2CCC(C(F)(F)F)CC2)ccc1Nc1ccc2c(c1)CNC(=O)N2` [Compound 535, 6-((2-methyl-4-(4-(trifluoromethyl)piperidin-1-yl)phenyl)amino)-3,4-dihydroquinazolin-2(1H)-one] the figure was 0.1 to 100 nM; with `Cc1cc(N2CC(C)OC(C)C2)ccc1Nc1ccc2c(c1)nc(N)n2C` (centres unmarked) [Compound 536, 5-N-[4-(2,6-dimethylmorpholin-4-yl)-2-methylphenyl]-1-methyl-1,3-benzodiazole-2,5-diamine], 0.1 to 100 nM; with `Cc1c(Nc2ccc3c(c2)OCC(=O)N3)ccc(N2CCC(C(F)(F)F)CC2)c1C#N` [Compound 537, 2-methyl-3-((3-oxo-3,4-dihydro-2H-benzo[b][1,4]oxazin-7-yl)amino)-6-(4-(trifluoromethyl)piperidin-1-yl)benzonitrile], 0.1 to 100 nM.
`Cc1cc(N2CCC(C(F)(F)F)CC2)ccc1Nc1ccc2c(c1)COC(=O)N2` [Compound 539, 6-((2-methyl-4-(4-(trifluoromethyl)piperidin-1-yl)phenyl)amino)-1,4-dihydro-2H-benzo[d][1,3]oxazin-2-one]: the EC50 lay in the range of 0.1 to 100 nM.
Same read-out and setting: the result for `CC1(O)CCN(c2ccc(Nc3ccc4c(c3)OCC(=O)N4)cc2)CC1` [Compound 540, 7-((4-(4-hydroxy-4-methylpiperidin-1-yl)phenyl)amino)-2H-benzo[b][1,4]oxazin-3(4H)-one] reads 100 to 1000 nM; that for `Cc1cc(N2CCC(C)(O)CC2)ccc1Nc1ccc2c(c1)OCC(=O)N2` [Compound 541, 7-((4-(4-hydroxy-4-methylpiperidin-1-yl)-2-methylphenyl)amino)-2H-benzo[b][1,4]oxazin-3(4H)-on], 100 to 1000 nM; that for `Cc1cc(N2CCC(C(C)(C)O)CC2)ccc1Nc1ccc2c(c1)OCC(=O)N2` [Compound 542, 7-((4-(4-(2-hydroxypropan-2-yl)piperidin-1-yl)-2-methylphenyl)amino)-2H-benzo[b][1,4]oxazin-3(4H)-one], 0.1 to 100 nM.
Regarding `CC(C)(O)C1CCN(c2ccc(Nc3ccc4c(c3)OCC(=O)N4)cc2)CC1` [Compound 543, 7-((4-(4-(2-hydroxypropan-2-yl)piperidin-1-yl)phenyl)amino)-2H-benzo[b][1,4]oxazin-3(4H)-on], the EC50 is 0.1 to 100 nM.
In the case of `Cc1cc(N2CCC(C(F)(F)F)CC2)ccc1Nc1ccc2c(c1)CN(C(N)=O)C2` [Compound 545, 5-((2-methyl-4-(4-(trifluoromethyl)piperidin-1-yl)phenyl)amino) isoindoline-2-carboxamide], the 50% effective concentration (EC50) fell in the range of 0.1 to 100 nM.
For the compound `COc1cc(Nc2ccc3c(c2)OCC(=O)N3)c(C)cc1N1CCC(C(F)(F)F)CC1` [Compound 546, 7-((5-methoxy-2-methyl-4-(4-(trifluoromethyl)piperidin-1-yl)phenyl)amino)-2H-benzo[b][1,4]oxazin-3(4H)-one], the EC50 fell in the range of 0.1 to 100 nM.
As for `COc1cc(Nc2cnc3c(c2)OCC(=O)N3)c(C)cc1N1CCC(C(F)(F)F)CC1` [Compound 547, 7-((5-methoxy-2-methyl-4-(4-(trifluoromethyl)piperidin-1-yl)phenyl)amino)-2H-pyrido[3,2-b][1,4]oxazin-3(4H)-one], the 50% effective concentration (EC50) fell in the range of 0.1 to 100 nM.
Same read-out and setting: the result for `COc1cc(Nc2cc(C)c3c(c2)OCC(=O)N3)c(C)cc1N1CCC(C(F)(F)F)CC1` [Compound 548, 7-((5-methoxy-2-methyl-4-(4-(trifluoromethyl)piperidin-1-yl)phenyl)amino)-5-methyl-2H-benzo[b][1,4]oxazin-3(4H)-one] reads 0.1 to 100 nM.
With `O=C1COc2cc(Nc3ccc(N4C5CCC4CC5)cc3)ccc2N1` [Compound 549, 7-((4-(7-azabicyclo[2.2.1]heptan-7-yl)phenyl)amino)-2H-benzo[b][1,4]oxazin-3(4H)-one], the concentration giving a half-maximal response (EC50) is 0.1 to 100 nM.
Same read-out and setting: the result for `Cc1cc(N2CCC(C(F)(F)F)CC2)ccc1Nc1ccc2c(C(N)=O)cn(C)c2c1` [Compound 551, 1-methyl-6-((2-methyl-4-(4-(trifluoromethyl)piperidin-1-yl)phenyl)amino)-1H-indole-3-carboxamide] reads 0.1 to 100 nM.
